ChEMBL document CHEMBL1201862, “PubChem BioAssay data set” (2004)
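Dose response: 5 concentrations. Exposure: 48 h. Format: 96-well plates. Endpoint: linear interpolation; highest concentration if not reached. GI50 = concentration required for 50% inhibition of growth.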 Calls of active or inactive are those of the source. Cut-off read from the data, not from the text of the source: active = GI50 up to about 1.1 µM and inactive = higher.

Experiments:
Assay in all cases: growth of human tumour cells (NCI), 48 h
[1] = system: SK-OV-3
[2] = system: ACHN
[3] = system: EKVX
[4] = system: SK-MEL-5
[5] = system: UACC-257
[6] = system: UO-31
[7] = system: IGROV-1
[8] = system: SF-268
[9] = system: MDA-MB-231
[10] = system: U-251
[11] = system: SNB-75
[12] = system: HT-29
[13] = system: NCI-H460
[14] = system: A498
[15] = system: HOP-92
[16] = system: SN12C
[17] = system: SNB-19
[18] = system: MCF7
[19] = system: UACC-62
[20] = system: HCC 2998

Measured: GI50

COC(=O)C1CCC(=O)N1CN(C(C)=O)c1cc(OC)ccc1OC (stereo not drawn)
inactive: [1] > 100 µM | [2] > 100 µM | [3] > 100 µM | [4] > 100 µM | [5] > 100 µM | [6] > 100 µM | [7] > 100 µM | [8] > 100 µM | [9] > 100 µM | [10] > 100 µM | [11] > 100 µM | [12] > 100 µM | [13] > 100 µM | [14] > 100 µM | [15] > 100 µM | [16] > 100 µM | [17] > 100 µM | [18] > 100 µM | [19] > 100 µM

CCOc1ccc2c(c1)NC(=O)C(C1OC(c3ccccc3)=CC1=O)S2 (stereo not drawn)
inactive: [1] 16.1 µM | [2] 37.2 µM | [20] 14.4 µM | [3] 25.1 µM | [4] 18.8 µM | [5] 56.5 µM | [6] 29.3 µM | [7] 17 µM | [8] 27.5 µM | [9] 25.1 µM | [10] 19.7 µM | [12] 20.2 µM | [13] 16.3 µM | [14] > 100 µM | [16] 26.7 µM | [17] 59.8 µM | [18] 16.2 µM | [19] 15 µM

CSC(=S)NN=C1CCCCC1
inactive: [1] > 100 µM | [2] 21 µM | [3] 22.8 µM | [4] 16 µM | [5] 33.9 µM | [6] > 100 µM | [7] 12.7 µM | [8] 38.5 µM | [9] 17.6 µM | [10] 29.1 µM | [11] 50.6 µM | [12] 47.6 µM | [13] 32.1 µM | [14] > 100 µM | [15] > 100 µM | [16] 24.4 µM | [17] 96.6 µM | [18] 33.8 µM | [19] 18.7 µM

CCCCCCCCCCCCCCCC(=O)OCC(COP(=O)(O)OCCNC(=O)CCSSc1ccccn1)OC(=O)CCCCCCCCCCCCCCC (stereo not drawn)
inactive: [1] > 100 µM | [2] > 100 µM | [3] > 100 µM | [4] > 100 µM | [5] > 100 µM | [6] > 100 µM | [7] > 100 µM | [8] > 100 µM | [9] > 100 µM | [10] > 100 µM | [11] > 100 µM | [12] > 100 µM | [13] > 100 µM | [14] > 100 µM | [15] > 100 µM | [16] > 100 µM | [17] > 100 µM | [18] > 100 µM | [19] > 100 µM

CCOC(=O)C1=C(C)NC(=O)NC1c1ccc(N(CCCl)CCCl)cc1Cl (stereo not drawn)
inactive: [1] 17.3 µM | [2] 14.5 µM | [3] 22.5 µM | [4] 14.7 µM | [5] 16 µM | [6] 14.3 µM | [7] 15.1 µM | [8] 15.5 µM | [9] 13.6 µM | [10] 16.6 µM | [11] 14.9 µM | [12] 16 µM | [13] 13 µM | [14] 15.9 µM | [15] 13 µM | [16] 16.3 µM | [17] 17.3 µM | [18] 13.6 µM | [19] 10.6 µM

O=C(c1ccc([N+](=O)[O-])cc1)C(Br)C(Br)c1ccnc2ccccc12 (stereo not drawn)
inactive: [1] 17.8 µM | [2] 4.61 µM | [3] 8.79 µM | [4] 6.34 µM | [5] 2.18 µM | [6] 1.77 µM | [7] 13.7 µM | [8] 13 µM | [9] 13.1 µM | [10] 1.75 µM | [11] 4.06 µM | [12] 2.9 µM | [13] 4.5 µM | [14] 3.99 µM | [15] 13.8 µM | [16] 4.46 µM | [17] 5.98 µM | [18] 2.39 µM | [19] 9.4 µM
